Measurements as given in paper PMC11873635 (Acta Pharmaceutica Sinica. B, 2024).
pEC50, pIC50: −log10 of the molar value. Read-outs that look alike come from different tables or passages of the source.

Assays:
[1] = test system: Tnf-α, Il-1β and Mmp-9 mRNA in mouse corneas; assay: Quantitative PCR analysis of mouse corneas; type: in vivo, C57BL/6 mice; details: DED mice, twice a day for 7 days
human SMS2 = molecular target: T1, human SMS2 (Homo sapiens, UniProt Q8NHU3); assay: purified SMS enzyme inhibitory assay in vitro; type: biochemical
T1 sequence (Q8NHU3 1-365): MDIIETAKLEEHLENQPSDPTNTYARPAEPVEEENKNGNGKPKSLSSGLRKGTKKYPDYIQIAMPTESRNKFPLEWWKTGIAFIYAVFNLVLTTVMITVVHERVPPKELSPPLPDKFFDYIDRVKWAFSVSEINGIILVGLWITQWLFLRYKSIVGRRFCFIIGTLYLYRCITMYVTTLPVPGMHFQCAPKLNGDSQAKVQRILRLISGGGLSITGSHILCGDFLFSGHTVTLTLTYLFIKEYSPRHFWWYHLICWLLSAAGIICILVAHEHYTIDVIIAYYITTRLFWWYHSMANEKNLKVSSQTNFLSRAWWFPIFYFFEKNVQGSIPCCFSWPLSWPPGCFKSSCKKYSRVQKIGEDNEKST

murine DED model [2] = assay: Corneal fluorescein staining in murine DED model; type: in vivo, C57BL/6 mice; details: DED mice; 14l low dose 0.001% twice a day for 7 days
[3] = test system: lipid content of meibomian glands; assay: LC-MS/MS lipidomic analysis of murine meibomian gland tissue; type: in vivo, C57BL/6 mice; details: DED mice
[4] = test system: TNFR1-Caspase3 activation in HCEC; assay: Western blot of TNFR1, caspase3 and cleaved-caspase3 in HCEC; type: cell-based, human; details: 14l 1/3 and 1 μmol/L; TNF-α 10 ng/mL, 550 mOsm
in vivo = details: male, SD, rat, topical or ocular, 16 ug
murine DED model [5] = assay: Tear volume measurement; type: in vivo, C57BL/6 mice; details: DED mice
[6] = test system: human corneal epithelial cells (HCEC); assay: Cell viability and toxicity assay; type: cell-based; details: within 25 μmol/L; 48 h
human SMS1 = molecular target: T2, human SMS1 (Homo sapiens, UniProt Q86VZ5); assay: purified SMS enzyme inhibitory assay in vitro; type: biochemical
T2 sequence (Q86VZ5 1-413): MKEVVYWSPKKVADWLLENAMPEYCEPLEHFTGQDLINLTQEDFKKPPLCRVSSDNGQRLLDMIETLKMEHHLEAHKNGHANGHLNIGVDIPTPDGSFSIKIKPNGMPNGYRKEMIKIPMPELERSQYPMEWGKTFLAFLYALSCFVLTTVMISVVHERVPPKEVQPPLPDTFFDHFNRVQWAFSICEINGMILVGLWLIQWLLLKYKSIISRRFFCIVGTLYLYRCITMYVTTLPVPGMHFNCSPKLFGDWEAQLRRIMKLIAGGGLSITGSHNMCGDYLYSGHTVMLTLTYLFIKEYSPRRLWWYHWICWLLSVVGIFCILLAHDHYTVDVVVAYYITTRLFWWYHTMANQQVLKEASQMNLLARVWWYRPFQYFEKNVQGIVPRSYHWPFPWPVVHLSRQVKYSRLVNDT

[7] = SD rats
[8] = test system: TNF-α protein expression in HCEC; assay: Western blot of TNF-α protein expression in HCEC under hyperosmotic stress; type: cell-based, human; details: 1 μmol/L; hyperosmotic 550 mOsm
[9] = test system: human corneal epithelial cells (HCEC); details: 14l 1/3 and 1 μmol/L, CsA 1 μmol/L; TNF-α 10 ng/mL, 550 mOsm, 5 h
[10] = test system: SM synthesis (SMS activity) in HCEC; assay: Cellular SM synthesis inhibitory assay in HCEC; type: cell-based, human
[11] = test system: human corneal epithelial cells (HCEC); assay: cells; details: 24 h, read-out: EC50 of protective effect on HCEC viability
[12] = test system: human corneal epithelial cells (HCEC); details: 1 μmol/L; TNF-α (10 ng/mL), 550 mOsm; after incubation for 3 h
[13] = 14l 0.001% and 0.025%, CsA 0.05%
[14] = Conjunctiva, single drop 16 μg/eye
[15] = Meibomian glands, single drop 16 μg/eye

pIC50 (human SMS2): 7.55 | Selectivity ratio (human SMS2; IC50, SMS1/IC50, SMS2): 589 | LLE (human SMS2; pIC50, SMS2 – ClogP): 2.21 | inhibition at 1 µM (human SMS2; read-out: SMS2 Inhibition @ 1 μmol/L (%)): 95% | Cmax (in vivo; conjunctiva): 358 ng/g | Tmax (in vivo; conjunctiva): 0.25 h | half-life (in vivo; conjunctiva): 1.3 h | Cmax (in vivo; cornea): 3050 ng/g | Tmax (in vivo; cornea): 1 h | half-life (in vivo; cornea): 1.11 h | Cmax (in vivo; meibomian glands): 2730 ng/g | Tmax (in vivo; meibomian glands): 1 h | half-life (in vivo; meibomian glands): 4.32 h | pIC50 (human SMS1): 4.80 | inhibition at 100 µM (human SMS1; read-out: SMS1 Inhibition @ 100 μmol/L (%)): 87% | AUC0‒t [7, 14]: 489.73 ng·h/g | AUC0‒∞ [7, 14]: 564.99 ng·h/g | AUC0‒t ([7]; Cornea, single drop 16 μg/eye): 4339.41 ng·h/g | AUC0‒∞ ([7]; Cornea, single drop 16 μg/eye): 4567.46 ng·h/g | AUC0‒t [7, 15]: 14379.61 ng·h/g | AUC0‒∞ [7, 15]: 14670.67 ng·h/g | detection in blood and retina ([7]; single drop 16 μg/eye): not detected in the blood and retina | pEC50 ([10]; Homo sapiens, HCEC, 6 h, read-out: SM synthesis inhibitory EC50 in HCEC): 6.52 | EC50 ([10]; Homo sapiens, HCEC, read-out: SM synthesis inhibitory EC50 in HCEC): 0.131 µg/mL
SMILES: CCCCCCCCOc1ccccc1COc1ccsc1C(=O)Nc1cccnc1 [14l, 3-((2-(Octyloxy)benzyl)oxy)-N-(pyridin-3-yl)thiophene-2-carboxamide]
Mmp-9 mRNA expression in cornea [1, 13]: decreased significantly in all treatment groups | Tnf-α mRNA expression in cornea [1, 13]: decreased significantly in all treatment groups | Il-1β mRNA expression in cornea ([1]; 14l high dose 0.025% or CsA 0.05%): reduced only in 14l high dose group and CsA treatment group | corneal fluorescein scores, 14l low dose (murine DED model [2]): higher than the two other treatment groups but lower than the DED control group | levels of triglycerides (TG) and cholesterol esters (ChE) in meibomian glands ([3]; all treatment groups): not impacted in all treatment groups | proportion of very long chain SM species in meibomian glands ([3]; eye drops twice a day for 7 days): reduced the proportion of very long chain SM species | ceramide content in meibomian glands ([3]; high dosage of 14l (0.025%)): did not induce an extreme increase and accumulation for ceramide | TNF-α-induced TNFR1-Caspase3 activation [4]: effectively prevent TNF-α-induced TNFR1-Caspase3 activation | tear volume (Schirmer's test) (murine DED model [5]; 14l high dose 0.025% or CsA (Zirun®) 0.05%, twice a day for 7 days): improved significantly | tear volume (Schirmer's test), 14l low dose (murine DED model [5]; 14l low dose 0.001% twice a day for 7 days): not in 14l low dose group | HCEC viability (MTT) [6]: less influence on the cell viability | adverse effect during the PK study ([7]; single drop 16 μg/eye): No adverse effect | ocular tissue distribution ([7]; single drop 16 μg/eye in 50% HP-β-CD): distributed mainly in the meibomian glands, conjunctiva and cornea | TNF-α protein expression [8]: inhibited TNF-α protein expression | HCEC population integrity and early apoptosis proportion [9]: a higher integrity of HCEC population and a less early apoptosis proportion | effect on SMS activity of HCEC ([10]; 1 μmol/L): efficient SMS inhibitory activities | pEC50 [11]: 6.21 | time-dependent protective effect in HCEC [12]: apparent and durative protective effect
